Some test systems named below: MDA-MB-231; LOX IMVI; SF-268; MOLT-4; NCI-H522; HL-60; COLO 205; IGROV-1; UO-31; A549; SW-620; NCI/ADR-RES; ACHN; HT-29; HCT-116; SN12C; EKVX; 786-0; CCRF-CEM; MCF7.
What all share (assay): inhibition of tumour cell growth, NCI panel, 48 h

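Interpolation was linear, between the two tested concentrations surrounding the appropriate level; five concentrations were tested over 48 hours in 96-well plates. The concentration for 50% growth inhibition is given as GI50.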 Activity calls are given as the source filed them. No stated cut-off is given here; in the data, active = GI50 up to about 1.1 µM and inactive = higher.

Turning to `O=c1ccc(=O)c2c1c1[nH]c3ccccc3c1c1c(=O)c3ccccc3c(=O)c21`, the GI50 is 5.36 µM (inactive) in the test on MDA-MB-231; > 10 µM (inactive) in the test on LOX IMVI; > 10 µM (inactive) with SF-268; 3.24 µM (inactive) in the test on MOLT-4; > 10 µM (inactive) with NCI-H522; 3.85 µM (inactive) in the test with HL-60. Moreover, the GI50 was > 10 µM (inactive) with COLO 205; > 10 µM (inactive) in the test on IGROV-1; 5.66 µM (inactive) in the test on UO-31; > 10 µM (inactive) in the test on A549; 8.22 µM (inactive) in the test with SW-620; > 10 µM (inactive) in the test on NCI/ADR-RES. Besides, the GI50 in the test with ACHN, with HT-29, with HCT-116, in the test with SN12C, with EKVX and in the test with 786-0 was > 10 µM (inactive) each time. In the test with CCRF-CEM, the GI50 was 3.19 µM (inactive).

Take `COc1cc2c(cc1C)NC(=O)/C2=C\c1ccncc1`: the GI50 with SF-268 is 3.83 µM (inactive); in the test on NCI-H522, 2.94 µM (inactive); in the test with HL-60, 3.73 µM (inactive); with COLO 205, 7.19 µM (inactive); in the test with IGROV-1, 2.43 µM (inactive); in the test on UO-31, 4.1 µM (inactive). The GI50 in the test with A549 was 15.3 µM (inactive); in the test with SW-620, 4.49 µM (inactive); in the test on NCI/ADR-RES it was 3.58 µM (inactive); in the test with ACHN, 6.05 µM (inactive); in the test with HT-29, 4.92 µM (inactive); with HCT-116 it was 2.34 µM (inactive). Further, the GI50 with SN12C was 6.15 µM (inactive); in the test with EKVX, 6.7 µM (inactive); in the test with MCF7, 3.03 µM (inactive); with 786-0, 5.35 µM (inactive); in the test with CCRF-CEM it was 2.75 µM (inactive).

Consider `Cn1c2ccccc2c(=O)c2cccc(C(=O)NCC(=O)O)c21`, for which the GI50 in the test on MDA-MB-231 is > 100 µM (inactive); in the test on LOX IMVI, 71.3 µM (inactive); with SF-268, > 100 µM (inactive); with MOLT-4, > 100 µM (inactive); with COLO 205, > 100 µM (inactive); with IGROV-1, 85.1 µM (inactive). The GI50 in the test on UO-31 was > 100 µM (inactive); in the test on A549, > 100 µM (inactive); in the test on SW-620, > 100 µM (inactive); with NCI/ADR-RES, 60.3 µM (inactive); with ACHN it was > 100 µM (inactive); in the test with HT-29 it was > 100 µM (inactive). The GI50 was > 100 µM (inactive) with HCT-116; > 100 µM (inactive) in the test on SN12C; 36.8 µM (inactive) in the test on EKVX; > 100 µM (inactive) in the test on MCF7; > 100 µM (inactive) in the test on 786-0.

For the compound `COc1ccc(Nc2nnc(-c3nsc4ccccc34)s2)cc1`, the GI50 in the test with MDA-MB-231 was 6.5 µM (inactive); with LOX IMVI, 41.1 µM (inactive); in the test with SF-268 it was 33.5 µM (inactive); in the test on MOLT-4, 46.5 µM (inactive); in the test with HL-60, > 70.1 µM (inactive); in the test on COLO 205, 63.7 µM (inactive). Also, the GI50 in the test with IGROV-1 was > 100 µM (inactive); in the test with UO-31 it was 10.2 µM (inactive); in the test with A549 it was 27.4 µM (inactive); in the test with SW-620 it was > 72.9 µM (inactive); in the test with NCI/ADR-RES, 9.71 µM (inactive); in the test on ACHN, 11.1 µM (inactive). Moreover, the GI50 with HT-29 was 39 µM (inactive); in the test on HCT-116, 8.55 µM (inactive); in the test with SN12C, > 61.4 µM (inactive); in the test on EKVX, 58.6 µM (inactive); with MCF7, 81.3 µM (inactive); in the test on 786-0 it was 3.41 µM (inactive). Moreover, the GI50 with CCRF-CEM is 34.7 µM (inactive).

In the case of `O=[N+]([O-])c1ccc(-c2csc(=[N+]3CCCCC3)s2)cc1`, the GI50 with LOX IMVI was 26.1 µM (inactive); with SF-268, 3.93 µM (inactive); in the test on MOLT-4, 5.38 µM (inactive); in the test with NCI-H522, 3.61 µM (inactive); with HL-60 it was > 53.2 µM (inactive); in the test on COLO 205, 2.26 µM (inactive). Besides, the GI50 with IGROV-1 is 4.48 µM (inactive); in the test on UO-31 it was > 68.1 µM (inactive); with A549, 1.93 µM (inactive); in the test with SW-620, 13.2 µM (inactive); with ACHN, 40.6 µM (inactive); in the test on HT-29, 6.04 µM (inactive). Moreover, the GI50 was 28.3 µM (inactive) with HCT-116; 4.48 µM (inactive) with SN12C; 18 µM (inactive) in the test on EKVX; 34.4 µM (inactive) in the test on 786-0; 4.91 µM (inactive) in the test with CCRF-CEM.

With `O=C(OCCN=c1c2ccccc2ccc2ccccc12)c1ccc([N+](=O)[O-])cc1`, the GI50 in the test with MDA-MB-231, in the test on LOX IMVI, with SF-268, with MOLT-4, with HL-60 and in the test on COLO 205 was > 100 µM (inactive) in each case. Moreover, the GI50 with IGROV-1, in the test on UO-31, in the test on A549, with SW-620, with NCI/ADR-RES and with ACHN was > 100 µM (inactive) throughout. Moreover, the GI50 with HT-29, with HCT-116, in the test on SN12C, in the test on EKVX, in the test on MCF7 and in the test on 786-0 was > 100 µM (inactive) throughout. Also, the GI50 with CCRF-CEM was > 100 µM (inactive).

On to `Cc1ccc2nc(N/N=C/c3sccc3C)cc(C)c2c1`, for which the GI50 is 14.7 µM (inactive) with MDA-MB-231; > 100 µM (inactive) with LOX IMVI; > 100 µM (inactive) in the test with SF-268; > 100 µM (inactive) with MOLT-4; 28.4 µM (inactive) with HL-60; > 100 µM (inactive) with COLO 205. The GI50 in the test with IGROV-1 was 37.2 µM (inactive); in the test with UO-31 it was > 100 µM (inactive); in the test with A549 it was 83.9 µM (inactive); in the test with SW-620 it was > 100 µM (inactive); in the test with NCI/ADR-RES, > 100 µM (inactive); with ACHN it was > 100 µM (inactive). Besides, the GI50 was 5.48 µM (inactive) with HT-29; 42.6 µM (inactive) in the test on HCT-116; > 100 µM (inactive) with SN12C; > 100 µM (inactive) in the test with EKVX; 25.3 µM (inactive) in the test with MCF7; 29.2 µM (inactive) with 786-0. In the test with CCRF-CEM, the GI50 is > 100 µM (inactive).

Regarding `CSCC[C@H](NC(=O)[C@H](CC(C)C)NC(=O)[C@@H](Cc1ccccc1)NC(=O)CNC(=O)[C@@H](NC(=O)[C@H](C)NC(=O)[C@H](Cc1c[nH]c2ccccc12)NC(=O)[C@H](CCC(N)=O)NC(=O)[C@H](N)CC(N)=O)C(C)C)C(N)=O`, the GI50 in the test with MDA-MB-231, with LOX IMVI, with SF-268, in the test on MOLT-4, with HL-60 and in the test with COLO 205 was > 12.5 µM (inactive) each time. The GI50 in the test on IGROV-1, in the test with A549, with SW-620, with NCI/ADR-RES, in the test on ACHN and with HT-29 was > 12.5 µM (inactive) throughout. The GI50 in the test on HCT-116, in the test with SN12C, in the test on EKVX, with MCF7, with 786-0 and in the test on CCRF-CEM was > 12.5 µM (inactive) throughout.

As to `CC(=O)OCC1OC(n2c(C)c(/N=N/c3ccc(C)cc3)c(C)c(C#N)c2=S)C(OC(C)=O)C(OC(C)=O)C1OC(C)=O` (centres undefined), the GI50 is 48.6 µM (inactive) in the test on MDA-MB-231; > 100 µM (inactive) in the test with LOX IMVI; > 100 µM (inactive) in the test with SF-268; > 100 µM (inactive) in the test on MOLT-4; > 100 µM (inactive) in the test on HL-60; > 100 µM (inactive) in the test on COLO 205. Further, the GI50 in the test with IGROV-1, in the test with UO-31, in the test with A549, in the test with SW-620, in the test on NCI/ADR-RES and in the test with ACHN was > 100 µM (inactive) in each case. Moreover, the GI50 in the test with HT-29 is > 100 µM (inactive); in the test on HCT-116, > 100 µM (inactive); in the test with SN12C, > 100 µM (inactive); in the test on MCF7, > 100 µM (inactive); in the test with 786-0, 27.4 µM (inactive); with CCRF-CEM, > 100 µM (inactive).

For `CC12CCC3[C@@H](CC3(C)C)C(O)(CCC1=O)C2` (some centres undefined), the GI50 in the test on MDA-MB-231, in the test on LOX IMVI, in the test on SF-268, in the test on MOLT-4, in the test on HL-60 and with COLO 205 was > 100 µM (inactive) in each case. Moreover, the GI50 in the test with IGROV-1, in the test on UO-31, in the test on A549, in the test on SW-620, in the test with NCI/ADR-RES and with ACHN was > 100 µM (inactive) in each case. In addition, the GI50 with HT-29, in the test on HCT-116, in the test on SN12C, with EKVX, in the test on MCF7 and in the test on 786-0 was > 100 µM (inactive) each time. In the test with CCRF-CEM, the GI50 is > 100 µM (inactive).

In the case of `CC(C)(C)CC(C)(C)c1ccc(OCCOCC[N+](C)(C)Cc2ccccc2)cc1` [BENZETHONIUM CHLORIDE], the GI50 with LOX IMVI is 1.42 µM (inactive); in the test with SF-268, 1.94 µM (inactive); with MOLT-4, 2.22 µM (inactive); in the test with NCI-H522, 1.66 µM (inactive); with HL-60 it was 0.883 µM (active); in the test on COLO 205, 1.49 µM (inactive). Also, the GI50 was 1.52 µM (inactive) with IGROV-1; 21.6 µM (inactive) in the test on UO-31; 8.71 µM (inactive) in the test on A549; 2.69 µM (inactive) in the test with SW-620; 11.6 µM (inactive) in the test with ACHN; 1.6 µM (inactive) in the test with HT-29. The GI50 in the test on HCT-116 is 1.71 µM (inactive); in the test on SN12C it was 3.52 µM (inactive); in the test with EKVX, 4.2 µM (inactive); with 786-0 it was 5.01 µM (inactive); in the test with CCRF-CEM it was 1.79 µM (inactive).

The values above are taken from ChEMBL document CHEMBL1201862, “PubChem BioAssay data set” (2004).
